Legend:
LXRβ [1] = target: T1, LXRβ (Homo sapiens, UniProt P55055); assay: TR-FRET coactivator assay (positive control, parent agonist); type: binding
T1 construct: gene NR1H2
T1 sequence (P55055 1-460): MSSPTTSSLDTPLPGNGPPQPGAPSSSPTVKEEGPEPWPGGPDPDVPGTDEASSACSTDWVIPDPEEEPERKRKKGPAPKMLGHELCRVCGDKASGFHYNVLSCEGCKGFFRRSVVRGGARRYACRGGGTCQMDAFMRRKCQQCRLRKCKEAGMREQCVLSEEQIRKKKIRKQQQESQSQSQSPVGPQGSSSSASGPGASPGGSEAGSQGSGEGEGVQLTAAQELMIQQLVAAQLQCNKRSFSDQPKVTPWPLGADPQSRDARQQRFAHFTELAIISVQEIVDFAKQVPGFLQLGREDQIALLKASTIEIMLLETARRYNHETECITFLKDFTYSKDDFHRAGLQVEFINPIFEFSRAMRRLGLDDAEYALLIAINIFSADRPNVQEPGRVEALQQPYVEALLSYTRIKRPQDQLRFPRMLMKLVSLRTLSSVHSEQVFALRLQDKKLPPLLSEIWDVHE

LXRβ [2] = target: T1, LXRβ; assay: TR-FRET coactivator assay; type: binding

Row | EC50 (LXRβ [1]) [nM] | EC50 (LXRβ [2]) [nM] | Compound
1 | 20 ± 7.2 |  | O=C(O)Cc1cccc(OCCCN(Cc2cccc(C(F)(F)F)c2Cl)CC(c2ccccc2)c2ccccc2)c1 [GW3965]
2 |  | 31 ± 4.4 | Cc1ncsc1-c1ccc(CNC(=O)[C@@H]2C[C@@H](O)CN2C(=O)[C@@H](NC(=O)COCCOCCOCCOCCOCCNC(=O)Cc2cccc(OCCCN(Cc3cccc(C(F)(F)F)c3Cl)CC(c3ccccc3)c3ccccc3)c2)C(C)(C)C)cc1 [compound 3, GW3965-PEG5-VH032]

— PMC8187946, “Development of Agonist-Based PROTACs Targeting Liver X Receptor” (Frontiers in Chemistry, 2021)
